Where a name gives a salt, the structure may show the parent alone. Read-outs that look alike come from different tables or passages of the source.
What was measured:
[1] = acute toxicity (LD50) in mice; type: in vivo; settings: mouse, in vivo, male NMRI-mice, mortality on 7th day
Protocol: The acute toxicity of the compounds is determined in male NMRI-mice (body weight range 18-22 g) after oral (p.o.) and intraperitonal (i.p.) administration. The LD50 is defined as that dose in μmol/kg which causes a 50% mortality rate of the test animals on the 7th day after application. The calculation of the LD50 is carried out by probitanalysis (see L. Cavalli-Sforza, Grundbegriffe der Biometric, Gustav Fischer Verlag Stuttgart (1964)).

isolated left atria = test: functional refractory period (FRP) and contraction force (CF) in isolated left atria, double stimulus method of Govier; set-up: species or system female guinea pigs; settings: for ratio between contraction force-reducing dose and functional refractory period-prolonging dose: CF/FRP, indication of therapeutic range, 18 min; for EC (FRP prolonged to 125%) / IC25: Cavia porcellus, 0.3 h, isolated left atria of guinea pig, 18 minutes after application; for EC (FRP prolonged to 125%): read-out: concentration prolonging functional refractory period (FRP) to 125% of starting value; for IC25: read-out: concentration reducing contraction force (CF) to 75% of starting value
Protocol: The prolongation of the functional refractory period (FRP) and the contraction force (CF) in the isolated left atria of female guinea pigs (albinopirbright-white guinea pigs, body weight range 300-400 g) are determined according to the double stimulus method of Govier (see W. C. Govier, J. Pharmakol, Exp. Ther. 148 (1965) pp. 100-105). The concentrations which are given in the table below are the concentrations in […] which 18 minutes after application leads to a prolongation of the functional refractory period to 125% or respectively to a reduction of the contraction force to 75% of the starting value. Furthermore the ratio between contraction force-reducing dose and functional refractory period-prolonging dose is given. This ratio is an indication of the therapeutic range of the antiarrhythmic effect on the isolated organ (see K. Greef, Verh. Dtsch. Ges. Kreislaufforsch. 35 (1969) pp. 88-97).

[2] = tested on: male Wista rats (aconitine); test: aconitine infusion in rats, heart rhythm disruption (Raschak); type: in vivo; settings: 1/20th of the LD50, concurrent aconitine infusion, time difference vs control
Protocol: To determine the influence of the active ingredient on male Wista rats (weighing 280 to 350 g), infusion with aconitine according to the method of Raschak is carried out (M. Raschak, Arzneim. Forschung (Drug Research) 25 (4) (1975) pp. 639-641). The results are given as the difference (that is, the difference in time as Δ%) between the active substance and a control sample in bringing about a disruption of heart rhythms (extrasystolic (ES), ventricular tachicardiea (VT), chamber flutter (KF)). In the control sample the active ingredient is replaced by a vehicle such as isotonic NaCl-solution or solution medium. The administration of the active ingredient is in a dosage of 1/20th of the LD50 and a constant concurrent infusion per unit of time of aconitine.

male NMRI-mice = test: minimum symptom dose (Campbell and Richter); type: in vivo; set-up: key: (*): symptoms already indicating toxic area; settings: i.p., changes in behavior in 2 out of 3 mice
Protocol: The minimum symptom dose is determined in male NMRI-mice (body weight range 18-22 g) according to the procedure of Campbell and Richter (see D. E. S. Campbell and W. Richter, Acta Pharmacol. Toxicol. 25 (1967), pp. 345-363). The minimum symptom dose is defined as that dose in μmol/kg which after i.p. administration causes changes in behavior in 2 out of 3 mice. The minimum symptom dose is a measure for evaluations undesirable side effects.

Compound	LD50 at 168 h ([1]; ip, i.p., read-out: LD50 i.p.)	LD50 at 168 h ([1]; po, p.o., read-out: LD50 p.o.)	ratio between contraction force-reducing dose and functional refractory period-prolonging dose (isolated left atria)	EC (FRP prolonged to 125%) (isolated left atria)	IC25 (isolated left atria)	Aconitin-Rat, ES (extrasystolic), Δ % [2]	Aconitin-Rat, KF (chamber flutter), Δ % [2]	Aconitin-Rat, VT (ventricular tachycardia), Δ % [2]	Min. Symptom-dose (male NMRI-mice)
CCC1C2CC3C4N(C)c5ccc(Br)cc5C45CC(C2C5O)[N+]3(CCN2CCCC2)C1O (stereo not shown) [Example 8.b, Nb-(2-(1-pyrrolidinyl)ethyl)-10-bromoisoajmalinium bishydrogen tartrate]	115 µmol/kg	394 µmol/kg	2.3	0.9 µM	2000 nM	+212%	+129%	> +149%	31 µmol/kg
CCCCCCCCCC[N+]12C(O)C(CC)C3CC1C1N(C)c4ccc(Br)cc4C14CC2C3C4O (stereo not shown) [Example 15.b, Nb-decyl-10-bromoisoajmalinium hydrogen tartrate]	72 µmol/kg	> 1440 µmol/kg	4.6	24.8 µM	113000 nM	n.s.	n.s.	n.s.	287 µmol/kg
CCC1C2CC3C4N(C)c5ccc(Br)cc5C45CC(C2C5O)[N+]3(CC)C1O (stereo not shown) [Example 12.b, Nb-ethyl-10-bromo-isoajmalinium hydrogen tartrate]	122 µmol/kg	1430 µmol/kg	0.9	1.5 µM	1400 nM	+52%	+39%	+55%	21 µmol/kg
CCC1C2CC3C4N(C)c5ccc(Br)cc5C45CC(C2C5O)[N+]3(CCCN(CC)CC)C1O (stereo not shown) [Example 19.b, Nb-diethylaminopropyl-10-bromoisoajmalinium bishydrogen tartrate]	122 µmol/kg	686 µmol/kg	0.5	4.4 µM	2000 nM	+220%	+158%	+180%	31 µmol/kg
CCC1C2CC3C4N(C)c5ccc(Br)cc5C45CC(C2C5O)[N+]3(C)C1O (stereo not shown) [Example 11.b, Nb-methyl-10-bromoisoajmalinium hydrogen tartrate]	190 µmol/kg	1290 µmol/kg	1.3	7.2 µM	9000 nM	+85%	+52%	+73%	88 µmol/kg
CCC1C2CC3C4N(C)c5ccc(Br)cc5C45CC(C2C5O)[N+]3(Cc2ccccc2)C1O (stereo not shown) [Example 16.b, Nb-benzyl-10-bromoisoajmalinium hydrogen tartrate]	483 µmol/kg	2280 µmol/kg	6.1	2.7 µM	16600 nM	+36%	+31%	+30%	(*)
CCC1C2CC3C4N(C)c5ccc(Br)cc5C45CC(C2C5O)[N+]3(CC(O)c2ccccc2)C1O (stereo not shown) [Example 21, Nb-(2-hydroxy-2-phenylethyl)-10-bromoisoajmalinium hydrogen tartrate]	250 µmol/kg	2180 µmol/kg	0.8	3.8 µM	3200 nM	+89%	+72%	+92%	
CCC1C2CC3C4N(C)c5ccc(Br)cc5C45CC(C2C5O)[N+]3(CCN2CCCCC2)C1O (stereo not shown) [Example 9.b, Nb-(2-(1-piperidinyl)ethyl)-10-bromoisoajmalinium bishydrogen tartrate]	60 µmol/kg	148 µmol/kg	0.7	2.3 µM	1400 nM	+151%	+95%	+52%	31 µmol/kg
CCCC[N+]12C(O)C(CC)C3CC1C1N(C)c4ccc(Br)cc4C14CC2C3C4O (stereo not shown) [Example 14.b, Nb-butyl-10-bromoisoajmalinium hydrogen tartrate]	76 µmol/kg	198 µmol/kg	0.7	2 µM	1500 nM	+80%	+88%	+87%	20 µmol/kg
CCC[N+]12C(O)C(CC)C3CC1C1N(C)c4ccc(Br)cc4C14CC2C3C4O (stereo not shown) [Example 13.b, Nb-propyl-10-bromoisoajmalinium hydrogen tartrate]		437 µmol/kg	2.4	0.6 µM	1500 nM	+110%	+110%	+130%	42 µmol/kg
CCC[N+]12C(O)C(CC)C3CC1C1N(C)c4ccccc4C14CC2C3C4O (stereo not shown) [Neo-Gilurytmal, Nb -propyl ajmalinium hydrogen tartrate, reference compound]				1.8 µM	260 nM	+86%	+50%	+80%	12 µmol/kg

From US4554274A, “Nb Quaternary derivatives of ajmaline and isoajmaline, methods and intermediate products in the manufacture of their derivatives and method of using same and pharmaceutical compositions thereof” (priority 1979, dated 1985)
